Data taken from publication PMC7245249 (Biomedical Journal, 2020).
Where a name gives a salt, the structure may show the parent alone. Read-outs that look alike come from different tables or passages of the source.

Experiments:
[1] = test system: Human coronavirus OC43; assay: microbe, parasite or virus in culture; format: cell-based, Human coronavirus OC43 (HCoV-OC43); conditions: for EC50: read-out: EC50 (IFA), Human coronavirus OC43; for Selectivity index, Human coronavirus OC43: CC50/EC50 in HCT-8 cells
[2] = test system: Feline infectious peritonitis virus; format: cell-based; conditions: for EC50: read-out: EC50 (Visual assay), Feline infectious peritonitis virus; for Selectivity index, Feline infectious peritonitis virus: CC50/EC50 in Fcwf-4 cells
[3] = in vitro; conditions: human
[4] = in vitro; conditions: cat (Felis catus)
[5] = Betacoronavirus 1, OC43, HCT-8, 72 h

SMILES	EC50 [1]	EC50 [2]	CC50 [3]	EC50 [1, 5]	Selectivity index, Human coronavirus OC43 [1]	CC50 [4]	Selectivity index, Feline infectious peritonitis virus [2]
COc1ccc(C[C@H]2NC[C@H](O)[C@H]2OC(C)=O)cc1 [Anisomycin]	0.2 ± 0.03 µM	0.023 µM	–	–	–	–	–
CCCCCC[C@H]1C(=O)O[C@H](C)[C@H](NC(=O)c2cccc(NC=O)c2O)C(=O)O[C@@H](C)[C@@H]1OC(=O)CC(C)C [Antimycin A]	–	–	> 50 µM	0.062 ± 0.003 µM	>806	81.9 ± 6.36 µM	1.10
O=C1C(O)=C([C@H]2CC[C@H](c3ccc(Cl)cc3)CC2)C(=O)c2ccccc21 [Atovaquone]	–	–	> 50 µM	6.78 ± 0.73 µM	>7.37	> 100 µM	–
CCN(CC)CCCC(C)Nc1ccnc2cc(Cl)ccc12 (stereo not drawn) [Chloroquine (diphosphate), Chloroquine]	–	27.9 ± 0.72 µM	> 50 µM	27.4 ± 2.51 µM	>1.82	37.5 µM	1.35
Cc1nc2c([nH]1)-c1ccccc1N(C(=O)c1ccc(NC(=O)c3ccccc3-c3ccccc3)cc1)CC2 [Conivaptan]	–	16.9 ± 1.51 µM	> 50 µM	12.2 ± 4.2 µM	>4.10	> 100 µM	–
CC[C@H]1CN2CCc3cc(OC)c(OC)cc3[C@@H]2C[C@@H]1C[C@H]1NCCc2cc(OC)c(OC)cc21 [Emetine]	–	–	> 50 µM	0.21 ± 0.07 µM	>238	0.03 µM	3.00
N#C[C@@]1(c2ccc3c(N)ncnn23)O[C@H](CO)[C@@H](O)[C@H]1O [GS-441524]	–	–	> 50 µM	6.77 ± 0.71 µM	>7.39	> 100 µM	–
Nc1ccn([C@@H]2O[C@H](CO)[C@@H](O)C2(F)F)c(=O)n1 [Gemcitabine (Hydrochloride), Gemcitabine]	–	–	> 50 µM	38.6 ± 11.4 µM	>1.30	> 100 µM	–
COC(=O)C[C@](O)(CCCC(C)(C)O)C(=O)O[C@@H]1C(OC)=C[C@]23CCCN2CCc2cc4c(cc2[C@H]13)OCO4 [Homoharringtonine]	–	–	7.61 ± 0.6 µM	0.29 ± 0.03 µM	26.7	0.049 ± 0.002 µM	1.58
O=C(Nc1ccc([N+](=O)[O-])cc1Cl)c1cc(Cl)ccc1O [Niclosamide]	–	–	> 50 µM	1.36 ± 0.56 µM	>36.8	0.23 µM	0.80
CC(=O)Oc1ccccc1C(=O)Nc1ncc([N+](=O)[O-])s1 [Nitazoxanide]	–	–	> 50 µM	28.6 ± 7.44 µM	>1.75	4.69 µM	–
CC[C@H]1/C=C/C=C/C[C@@H](C)[C@H](O)[C@@](C)(O)C(=O)[C@@H](C)[C@H](O)[C@@H](C)C(=O)[C@@H](C)[C@H](O)[C@@H](C)/C=C/C(=O)O[C@@H]2[C@H](C)[C@H](CC1)O[C@]1(CC[C@H](C)[C@H](C[C@@H](C)O)O1)[C@H]2C [Oligomycin]	5.22 ± 0.96 µM	–	> 50 µM	5.2 µM	>9.58	18.8 µM	1.06
CC[C@@H](C(=O)[C@@H](C)[C@@H](O)[C@H](C)[C@@H]1O[C@@H]([C@@H](CC)C(=O)O)CC[C@@H]1C)[C@H]1O[C@]2(C=C[C@@H](O)[C@]3(CC[C@@](C)([C@H]4CC[C@](O)(CC)[C@H](C)O4)O3)O2)[C@H](C)C[C@@H]1C [Salinomycin]	–	–	> 50 µM	5.78 ± 2.17 µM	>8.65	0.34 ± 0.1 µM	0.49
CCN(CC)CCOc1ccc2c(c1)C(=O)c1cc(OCCN(CC)CC)ccc1-2 [Tilorone (dihydrochloride), Tilorone]	–	–	35.9 ± 2.97 µM	26 ± 2.24 µM	1.38	9.38 µM	0.84
CC(C)[C@@H]1NC(=O)[C@H](C)OC(=O)[C@@H](C(C)C)NC(=O)[C@@H](C(C)C)OC(=O)[C@H](C(C)C)NC(=O)[C@H](C)OC(=O)[C@@H](C(C)C)NC(=O)[C@@H](C(C)C)OC(=O)[C@H](C(C)C)NC(=O)[C@H](C)OC(=O)[C@@H](C(C)C)NC(=O)[C@@H](C(C)C)OC1=O [Valinomycin]	0.41 ± 0.02 µM	–	> 50 µM	0.4 µM	>122	3.98 ± 0.39 µM	2.45
CS(=O)(=O)c1ccc(C(=O)Nc2ccc(Cl)c(-c3ccccn3)c2)c(Cl)c1 [Vismodegib]	–	–	> 50 µM	47.6 ± 3.29 µM	>1.05	> 100 µM	–
